Test results from the supplement of paper PMC10331698.
± gives the standard deviation of the averaged measurements.

Key:
Experiment in all cases: level (log10 ratio to DMSO vehicle control); higher = higher biomarker level / cell amount than vehicle control
[1] = compound: CN(C(=O)C(F)(F)C(F)(F)C(F)(F)F)[Si](C)(C)C [N-Methyl-N-trimethylsilylheptafluorobutyramide] (in DMSO)
Experimental: (§1)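 BioMAP Diversity Plus panel of 12 human primary cell co-culture systems (3C, 4H, LPS, SAg, BT, BF4T, BE3C, CASM3C, HDF3CGF, KF3CT, MyoF, Mphg). Compounds were added 1 h before stimulation and left for 24 h (MyoF 48 h; BT 72 h for soluble read-outs or 6 d for IgG). Biomarkers were read by ELISA, cytotoxicity by SRB, PBMC viability and proliferation by Alamar Blue. Each well value was divided by the mean of 8 DMSO control wells on the same plate and log10 transformed; duplicate blinded samples were tested at 4 concentrations.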

[2] = compound: CO[Si](C)(CCC(F)(F)C(F)(F)C(F)(F)C(F)(F)C(F)(F)C(F)(F)F)OC [Dimethoxymethyl((perfluorohexyl)ethyl)silane] (in DMSO)
Experimental: as §1

Octafluoroadipic acid = compound: O=C(O)C(F)(F)C(F)(F)C(F)(F)C(F)(F)C(=O)O [Octafluoroadipic acid] (in DMSO)
Experimental: as §1

[3] = compound: O=C(O)C(F)(F)OC(F)(F)C(F)(F)OC(F)(F)C(F)(F)OC(F)(F)C(F)(F)C(F)(F)C(F)(F)F [Perfluoro-3,6,9-trioxatridecanoic acid] (in DMSO); conditions: 6700 nM
Experimental: as §1

[4] = compound: O=C(O)CCC(F)(C(F)(F)F)C(F)(F)F [4,4-bis(Trifluoromethyl)-4-fluoropropanoic acid] (in DMSO)
Experimental: as §1

[5] = compound: O=S(=O)(O)C(F)(F)C(F)(F)OC(F)(F)C(F)(F)F [Perfluoro(2-ethoxyethane)sulfonic acid] (in DMSO)
Experimental: as §1

[6] = compound: OCC(F)(F)OC(F)(F)C(F)(F)OC(F)(F)C(F)(F)OC(F)(F)CO [1H,1H,11H,11H-Perfluorotetraethylene glycol] (in DMSO)
Experimental: as §1

Test System	level (log10) ([1]; 6700 nM)	level (log10) ([1]; 20000 nM)	level (log10) ([1]; 60000 nM)	level (log10) ([2]; 6700 nM)	level (log10) ([2]; 20000 nM)	level (log10) (Octafluoroadipic acid; 6700 nM)	level (log10) (Octafluoroadipic acid; 20000 nM)	level (log10) (Octafluoroadipic acid; 60000 nM)	level (log10) [3]	level (log10) ([4]; 6700 nM)	level (log10) ([4]; 20000 nM)	level (log10) ([4]; 60000 nM)	level (log10) ([5]; 6700 nM)	level (log10) ([5]; 20000 nM)	level (log10) ([5]; 60000 nM)	level (log10) ([6]; 6700 nM)	level (log10) ([6]; 20000 nM)	level (log10) ([6]; 60000 nM)
HDF3CGF:M-CSF	-0.0375 ± 0.03	-0.038 ± 0.0085	-0.029 ± 0.055	-0.039 ± 0.0028	-0.02 ± 0.025	-0.0095 ± 0.005	-0.01 ± 0.0085	0.0255 ± 0.036	-0.158 ± 0.016	-0.0205 ± 0.081	-0.0565 ± 0.13	-0.0735 ± 0.15	0.004 ± 0.011	-0.0075 ± 0.0092	-0.009 ± 0.016	-0.036 ± 0.083	-0.121 ± 0.098	-0.261 ± 0.046
HDF3CGF:MMP-1	-0.0195 ± 0.016	-0.015 ± 0.014	-0.008 ± 0.045	-0.0165 ± 0.018	-0.005 ± 0.042	-0.0115 ± 0.0078	0.0025 ± 0.0035	0.0015 ± 0.0064	-0.134 ± 0.054	0.0015 ± 0.015	-0.0075 ± 0.029	-0.0145 ± 0.054	-0.004 ± 0.0071	-0.0135 ± 0.029	-0.0235 ± 0.053	0.0265 ± 0.0092	0.0845 ± 0.021	0.095 ± 0.0014
HDF3CGF:PAI-I	-0.013 ± 0.0042	0.0015 ± 0.023	0.0385 ± 0.04	-0.0035 ± 0.0092	0.0105 ± 0.015	-0.008 ± 0.017	-0.017 ± 0.0071	0.0115 ± 0.037	-0.212 ± 0.0099	0.0145 ± 0.011	-0.0095 ± 0.00071	-0.014 ± 0.024	0.025 ± 0.0014	-0.003 ± 0.0071	-0.021 ± 0.013	-0.0265 ± 0.033	-0.0285 ± 0.013	-0.036 ± 0.027
HDF3CGF:Proliferation 72hr	0.0075 ± 0.013	0.052 ± 0.042	0.0225 ± 0.011	0.02 ± 0.011	0.007 ± 0.037	-0.036 ± 0.0042	0.024 ± 0.047	0.013 ± 0.017	-0.827 ± 0.29	-0.0275 ± 0.035	0.0025 ± 0.028	0.037 ± 0.0014	-0.0225 ± 0.021	0.004 ± 0.0042	-0.067 ± 0.03	-0.125 ± 0.1	-0.178 ± 0.12	-0.358 ± 0.064
HDF3CGF:SRB	-0.048 ± 0.0028	-0.0015 ± 0.056	0.0205 ± 0.086	0.0315 ± 0.025	0.0455 ± 0.036	-0.033 ± 0.023	0.0135 ± 0.037	-0.0005 ± 0.042	-0.107 ± 0.0021	-0.0385 ± 0.07	-0.0245 ± 0.042	0.045 ± 0.041	-0.02 ± 0.0085	-0.017 ± 0.013	0.0085 ± 0.1	-0.0225 ± 0.043	-0.023 ± 0.1	-0.0555 ± 0.077
HDF3CGF:TIMP-1	-0.036 ± 0.017	-0.038 ± 0.018	-0.031 ± 0.0071	-0.023 ± 0.027	-0.0285 ± 0.022	-0.0055 ± 0.03	0.022 ± 0.059	0.023 ± 0.055	-0.109 ± 0.088	-0.022 ± 0.041	-0.021 ± 0.044	-0.036 ± 0.092	0.0415 ± 0.067	0.048 ± 0.04	0.0955 ± 0.071	-0.023 ± 0.089	0.0015 ± 0.11	-0.073 ± 0.092
HDF3CGF:TIMP-2	-0.0155 ± 0.036	0.002 ± 0.017	-0.0065 ± 0.049	0.002 ± 0.027	-0.03 ± 0.0014	0.007 ± 0.0085	0.02 ± 0.023	0.0055 ± 0.0078	-0.291 ± 0.005	-0.042 ± 0.052	-0.041 ± 0.045	-0.0265 ± 0.013	-0.011 ± 0.0099	-0.0305 ± 0.015	0.02 ± 0.059	-0.0285 ± 0.011	-0.046 ± 0.11	-0.121 ± 0.07
KF3CT:CCL2/MCP-1	-0.0175 ± 0.0092	-0.0305 ± 0.021	0.0205 ± 0.056	-0.0325 ± 0.0092	0.008 ± 0.059	-0.0165 ± 0.043	-0.0265 ± 0.00071	0.0285 ± 0.026	-0.295 ± 0.023	-0.011 ± 0.0057	-0.0145 ± 0.03	0.0015 ± 0.0092	-0.0025 ± 0.013	-0.002 ± 0.016	0.0115 ± 0.032	-0.025 ± 0.024	-0.044 ± 0.024	-0.005 ± 0.0042
